Data taken from ChEMBL document CHEMBL1201862, “PubChem BioAssay data set” (2004).
The source made the active and inactive calls.

Assays:
Major prion protein = Major prion protein (Homo sapiens, UniProt P04156); type: functional, cell-based
cells [1] = experiment: cells
[2] = NIH3T3 cell viability loss – ATP luminescence, mouse fibroblasts, counter-screen, dose response (AID 2010); type: functional, cell-based;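 note: cells exposed to compound for about 90 hours before reading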
cells [3] = settings: A549
[4] = Trypanosoma cruzi growth suppression in host cells – NIH3T3 host cells, beta-gal luminescence, confirmation (AID 2044); type: functional, cell-based;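 note: intracellular parasites grown in NIH/3T3 mouse fibroblasts as host cells; luminescent beta-galactosidase reporter signal from transgenic T. cruzi replicating inside host cells; inhibitors lower the luminescence signal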
cells [5] = settings: HEK293
[6] = target: Nuclear receptor subfamily 5 group A member 2 (Homo sapiens, UniProt O00482); type: functional, cell-based;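 note: HEK293T cells transfected with LRH-1 and a StAR promoter luciferase reporter; potency for inhibitors that lower LRH-1 driven reporter light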
Steroidogenic factor 1 = Steroidogenic factor 1 (Homo sapiens, UniProt Q13285); experiment: Counterscreen for inverse agonists of the liver receptor homolog-1 (LRH-1; NR5A2): Luminescence-based cell-based high throughput dose response assay to identify inverse agonists of the Steroidogenic Factor 1 Nuclear Receptor (SF1; NR5A1).; type: functional
[7] = nonselective StAR promoter luciferase inhibitors – cell-based, luminescence, luciferase reporter, counter-screen for LRH-1 inverse agonist project, dose response (AID 651969); type: functional
Protein Wnt-3a = Protein Wnt-3a (Mus musculus, UniProt P27467); experiment: antagonism of Wnt3a pathway luciferase reporter – Wnt-LIGHT cells, luminescence, selectivity assay for Gli-SUFU antagonist project, dose response (AID 651570); type: functional; settings: read-out: IC50_Mean;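 note: Wnt-LIGHT reporter cells stimulated with conditioned medium from Wnt3a-producing cells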
[8] = target: Adenosylmethionine-8-amino-7-oxononanoate aminotransferase (Mycobacterium tuberculosis, UniProt P9WQ81); experiment: Mycobacterium tuberculosis BioA enzyme inhibitor Measured in Biochemical System Using Plate Reader - 2163-02_Inhibitor_Dose_CherryPick_Activity.; type: functional, Mycobacterium tuberculosis UT205
[9] = target: T1, Polyadenylate-binding protein 1 (Homo sapiens, UniProt P11940); experiment: MLLE binding blockers, Cy5 peptide tracer – biochemical, fluorescence polarization, Cy5-PAM2 peptide, secondary, miRNA deadenylation inhibitor project, dose response (AID 602260); type: functional; settings: read-out: IC50_Mean
[10] = target: T1, Polyadenylate-binding protein 1; experiment: MLLE domain peptide-binding blockers, IC50 – biochemical, fluorescence polarization, FITC-PAM2 peptide, dose response (AID 602259); type: functional; settings: read-out: IC50_Mean
[11] = target: Tyrosine-protein phosphatase non-receptor type 11 (Homo sapiens, UniProt Q06124); experiment: PTPN11 enzyme inhibitors – biochemical, selectivity assay for STEP inhibitor project, dose response (AID 602367); type: functional; settings: read-out: IC50_Mean
SUMO-activating enzyme [12] = target: T2, SUMO-activating enzyme (Homo sapiens, UniProt Q9UBT2); experiment: blockers of UBC9-mediated SUMO conjugation – biochemical, AlphaScreen, SUMOylation inhibitor project, confirmation (AID 2018); type: functional
[13] = target: T3, Carboxy-terminal domain RNA polymerase II polypeptide A small phosphatase 1 (Homo sapiens, UniProt Q9GZU7); experiment: CTDSP1 inhibitors, concentration-response, biochemical, absorbance readout, ultra-high-throughput screen actives (AID 540297); type: functional
T3 sequence (Q9GZU7 whole entry): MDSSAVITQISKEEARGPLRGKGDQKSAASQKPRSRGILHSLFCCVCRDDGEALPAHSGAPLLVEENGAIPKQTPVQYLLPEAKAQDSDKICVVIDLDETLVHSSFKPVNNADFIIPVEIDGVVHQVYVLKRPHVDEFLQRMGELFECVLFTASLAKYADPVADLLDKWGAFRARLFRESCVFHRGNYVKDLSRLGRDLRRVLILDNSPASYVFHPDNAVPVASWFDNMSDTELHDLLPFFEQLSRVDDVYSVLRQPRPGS

SUMO-activating enzyme [14] = target: T2, SUMO-activating enzyme; experiment: blockers of SAE1/SAE2–UBC9 SUMO transfer – biochemical, HTRF, uHTS, primary screen (AID 2006); type: protein-complex assay
[15] = target: Tyrosine-protein phosphatase non-receptor type 5 (Homo sapiens, UniProt P54829); experiment: PTPN5 enzyme inhibition – biochemical, fluorescence intensity, uHTS hits, confirmation (AID 602372); type: functional; settings: read-out: IC50_Mean
[16] = target: Dual specificity protein phosphatase 3 (Homo sapiens, UniProt P51452); experiment: VHR phosphatase inhibition, dose response, selectivity assay for STEP inhibitor project, biochemical (AID 602374); type: functional; settings: read-out: IC50_Mean
[17] = target: Eukaryotic translation initiation factor 4H (Homo sapiens, UniProt Q15056); experiment: eIF4H binding inhibition – biochemical, uHTS, fluorescence polarization, translation initiation inhibitor project, primary screen (AID 2012)
H9c2 = experiment: cells; type: functional, cell-based; settings: Rattus norvegicus, H9c2, Myocardium;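 note: confirmatory concentration-response retest of ultra-high-throughput screening hits for modulation of myocardial damage; cell death induced by hydrogen peroxide oxidative stress; compound pretreatment for 60 min then peroxide exposure for 2 h; potency is for protecting the cells against peroxide damage rather than for killing them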
[18] = target: T1, Polyadenylate-binding protein 1; experiment: blockers of PABP interaction with poly(A) – biochemical, fluorescence polarization, […] (AID 2014)
[19] = inhibition of ADAM10 peptide cleavage – biochemical, FRET peptide substrate, recombinant human ADAM10, selectivity assay for ADAM17 exosite inhibitor project, dose response (AID 743259);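 note: ADAM10 enzyme cleaving a FRET peptide substrate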
Cryptococcus neoformans = experiment: PubChem AID 686997; type: functional, organism-based
HeLa = experiment: viability loss in HeLa cells – cell-based, ATP luminescence, cherry-pick samples, cytotoxicity control, dose response (AID 687004); type: functional
[20] = target: Disintegrin and metalloproteinase domain-containing protein 17 (Homo sapiens, UniProt P78536); experiment: exosite inhibitors of ADAM17, dose response, biochemical (AID 743260)

Structure (SMILES): Brc1ccc2nc(-c3ccco3)c(Cc3ccccc3)n2c1
- IC50 (Major prion protein): 6.67 µM (active)
- IC50 (cells [1]): 113 µM (inactive)

Structure (SMILES): Cc1ccc2nc3c(cc(C(N)=S)c(=N)n3CCCOC(C)C)c(=O)n2c1
- EC50 [2]: 9.45 µM (active)
- AC50 (cells [3]): 33.9 µM (active)
- EC50 [4]: 4.43 µM (active)
- AC50 (cells [5]): > 52 µM (inactive)

Structure (SMILES): Cc1cc(OCC(=O)Nc2nccs2)c2c(C)cc(=O)oc2c1
- IC50 [6]: 0.168 µM (active)
- IC50 (Steroidogenic factor 1): 0.112 µM (active)
- IC50 [7]: 35.9 µM (inactive)

Structure (SMILES): C=C(C)CSc1nc2sc3c(c2c(=O)n1C1CCCCC1)CCN(C)C3
- EC50 [2]: > 60 µM (not active)
- IC50 (Protein Wnt-3a): 13.5 µM (active)
- EC50 [4]: 0.403 µM (active)

Structure (SMILES): CCNC(=O)[C@@H]1[C@@H](CO)[C@@H]2Cn3c(ccc(-c4cccnc4)c3=O)[C@@H]2N1Cc1ccc2c(c1)OCO2
- AC50 [8]: 9.24 µM (active)

Structure (SMILES): O=C(CSc1nc(Cc2ccccc2)nc2ccccc12)Nc1ccc2c(c1)OCCO2
- IC50 [9]: > 66 µM (inactive)
- IC50 (Major prion protein): 5.39 µM (active)
- IC50 (cells [1]): 45.6 µM (inactive)
- IC50 [10]: > 66 µM (inactive)

Structure (SMILES): COc1cc(/C=N/NC(=O)c2ccccc2O)ccc1OCC(=O)Nc1ccccc1
- IC50 [11]: 1.25 µM (active)
- IC50 (SUMO-activating enzyme [12]): 16.4 µM (active)
- IC50 [13]: 5.46 µM (active)
- IC50 (SUMO-activating enzyme [14]): 8.71 µM (active)
- IC50 [15]: 26.2 µM (inactive)
- IC50 [16]: 4.1 µM (active)
- IC50 [17]: 15.4 µM (active)
- IC50 (H9c2): > 79 µM (inactive)
- IC50 [18]: > 100 µM (inactive)

Structure (SMILES): COC(=O)C1=C(C)N(Cc2ccc(Br)cc2)C(=S)NC1c1ccc(F)cc1 (configuration not stated)
- IC50 [19]: 52.8 µM (inactive)
- AC50 (Cryptococcus neoformans): 23.2 µM (active)
- AC50 (Cryptococcus neoformans; Cryptococcus neoformans): 40.3 µM (active)
- AC50 (HeLa): > 52 µM (inactive)
- AC50 (HeLa; Homo sapiens): > 47 µM (inactive)
- IC50 [20]: > 69.6 µM (inactive)
